According to ChEMBL document CHEMBL5214960 (J Med Chem, 2022):
Positions count from the first letter of the chain named. In brackets after ≈: the same amount, converted by molar mass.

Legend:
[1] = molecular target: T1, Low molecular weight phosphotyrosine protein phosphatase (Homo sapiens, UniProt P24666); test: Inhibition of His-tagged human LMW-PTP expressed in Escherichia coli BL21 using pNPP as substrate incubated for 10 mins by microplate reader based spectrophotometric analysis
T1 sequence (P24666 whole entry): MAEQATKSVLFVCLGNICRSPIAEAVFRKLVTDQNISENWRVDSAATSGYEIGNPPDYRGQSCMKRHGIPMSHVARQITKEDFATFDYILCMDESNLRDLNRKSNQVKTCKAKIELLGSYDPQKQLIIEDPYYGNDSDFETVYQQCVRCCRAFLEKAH

[2] = Inhibition of PTP-Meg2 (unknown origin); parameters: species or system Homo sapiens
[3] = molecular target: T2, Low molecular weight phosphotyrosine protein phosphatase (Mus musculus, UniProt Q9D358); test: Inhibition of N-terminal His-tagged full length mouse LMW-PTP expressed in Escherichia coli BL21(DE3) by […] analysis
T2 sequence (Q9D358 whole entry): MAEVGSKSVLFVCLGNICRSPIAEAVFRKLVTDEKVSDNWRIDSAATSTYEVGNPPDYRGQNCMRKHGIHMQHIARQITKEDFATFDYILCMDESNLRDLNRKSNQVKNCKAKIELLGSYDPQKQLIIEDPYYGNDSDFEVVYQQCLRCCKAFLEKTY

[4] = molecular target: Dual specificity protein phosphatase 23 (Homo sapiens, UniProt Q9BVJ7); test: Inhibition of VHZ (unknown origin)
[5] = Aqueous solubility of compound at pH 6 by HPLC analysis; type: physicochemical; conditions: buffer
CYP2D6 = CYP2D6 (Homo sapiens, UniProt P10635); test: Inhibition of human hepatic CYP2D6 using bufuralol HCL as substrate measured after 3 mins by LC-MS analysis relative to control; type: ADME, tissue-based; parameters: concentration or dose not given beside the values; conditions: human hepatic CYP2D6 (liver), probe bufuralol HCl
CYP2C9 = CYP2C9 (Homo sapiens, UniProt P11712); test: Inhibition of human hepatic CYP2C9 using diclofenac as substrate measured after 10 mins by LC-MS analysis relative to control; type: ADME, tissue-based; parameters: concentration or dose not given beside the values; conditions: human hepatic CYP2C9 (liver), probe diclofenac
CYP3A4 = CYP3A4 (Homo sapiens, UniProt P08684); test: Inhibition of human hepatic CYP3A4 using midazolam as substrate measured after 3 mins by LC-MS analysis relative to control; type: ADME, tissue-based; parameters: concentration or dose not given beside the values; conditions: human hepatic CYP3A4 (liver), probe midazolam
[6] = Metabolic stability in human hepatic microsome at 4 uM measured after 30 mins by LC-MS analysis; type: ADME; conditions: liver microsomes, read-out: Stability
[7] = Metabolic stability in mouse hepatic microsome at 4 uM measured after 30 mins by LC-MS analysis; type: ADME; conditions: liver microsomes, read-out: Stability
[8] = Metabolic stability in dog hepatic microsome at 4 uM measured after 30 mins by LC-MS analysis; type: ADME, Canis lupus familiaris; conditions: liver microsomes, read-out: Stability
[9] = Plasma protein binding in mouse assessed as unbound fraction measured after 4.5 hrs by LC-MS/MS analysis; type: ADME, cell-free
[10] = AUC(0 to 8 hrs) in CD-1 mouse plasma at 10 mg/kg, po measured after 8 hrs by LC-MS/MS analysis; type: ADME, organism-based; parameters: dose 10 mg/kg, time 8 hrs, route po; conditions: in vivo
[11] = AUC(0 to 8 hrs) in CD-1 mouse plasma at 2 mg/kg, iv measured after 8 hrs by LC-MS/MS analysis; type: ADME, organism-based; parameters: dose 2 mg/kg, time 8 hrs, route iv; conditions: in vivo
[12] = Cmax in CD-1 mouse plasma at 10 mg/kg, po measured after 8 hrs by LC-MS/MS analysis; type: ADME, organism-based; parameters: dose 10 mg/kg, time 8 hrs, route po
[13] = Cmax in CD-1 mouse plasma at 2 mg/kg, iv measured after 8 hrs by LC-MS/MS analysis; type: ADME, organism-based; parameters: time 8 hrs, dose 2 mg/kg, route iv
[14] = Unbound Cmax in plasma of CD-1 mouse at 10 mg/kg, po measured after 8 hrs by LC-MS/MS analysis; type: ADME, organism-based; conditions: in vivo
[15] = Unbound Cmax in plasma of CD-1 mouse at 2 mg/kg, iv measured after 8 hrs by LC-MS/MS analysis; type: ADME, organism-based; conditions: in vivo
[16] = Volume of distribution at steady state in CD-1 mouse plasma at 2 mg/kg, iv measured after 8 hrs by LC-MS/MS analysis; type: ADME, organism-based; conditions: in vivo
[17] = Half life in CD-1 mouse plasma at 2 mg/kg, iv measured after 8 hrs by LC-MS/MS analysis; type: ADME, organism-based
[18] = Half life in CD-1 mouse plasma at 10 mg/kg, po measured after 8 hrs by LC-MS/MS analysis; type: ADME, organism-based; conditions: in vivo
[19] = Oral bioavailability in CD-1 mouse plasma at 10 mg/kg measured after 8 hrs by LC-MS/MS analysis; type: ADME, organism-based; conditions: mouse, in vivo, po, 10 mg/kg, 8 h
[20] = AUC(0 to 12 hrs) in Sprague-Dawley rat plasma at 30 mg/kg, po measured after 24 hrs by LC-MS/MS analysis; type: ADME, organism-based; parameters: time 24 hrs, dose 30 mg/kg, route po; conditions: in vivo
[21] = Cmax in Sprague-Dawley rat plasma at 30 mg/kg, po measured after 24 hrs by LC-MS/MS analysis; type: ADME, organism-based; parameters: time 24 hrs, dose 30 mg/kg, route po; conditions: in vivo
[22] = Unbound Cmax in plasma of Sprague-Dawley rat at 30 mg/kg, po measured after 24 hrs by LC-MS/MS analysis; type: ADME, organism-based; conditions: in vivo
[23] = Tmax in Sprague-Dawley rat plasma at 30 mg/kg, po measured after 24 hrs by LC-MS/MS analysis; type: ADME, organism-based; conditions: in vivo
[24] = Half life in Sprague-Dawley rat plasma at 30 mg/kg, po measured after 24 hrs by LC-MS/MS analysis; type: ADME, organism-based; conditions: in vivo
[25] = molecular target: T3, Low molecular weight phosphotyrosine protein phosphatase (Rattus norvegicus, UniProt P41498); test: Inhibition of N-terminal His-tagged full length rat LMW-PTP expressed in Escherichia coli BL21(DE3)
T3 sequence (P41498 whole entry): T2 sequence (Q9D358 whole entry) with K35N, R65K, K80R, Y158H

Chain of CYP2C9 (P11712 whole entry): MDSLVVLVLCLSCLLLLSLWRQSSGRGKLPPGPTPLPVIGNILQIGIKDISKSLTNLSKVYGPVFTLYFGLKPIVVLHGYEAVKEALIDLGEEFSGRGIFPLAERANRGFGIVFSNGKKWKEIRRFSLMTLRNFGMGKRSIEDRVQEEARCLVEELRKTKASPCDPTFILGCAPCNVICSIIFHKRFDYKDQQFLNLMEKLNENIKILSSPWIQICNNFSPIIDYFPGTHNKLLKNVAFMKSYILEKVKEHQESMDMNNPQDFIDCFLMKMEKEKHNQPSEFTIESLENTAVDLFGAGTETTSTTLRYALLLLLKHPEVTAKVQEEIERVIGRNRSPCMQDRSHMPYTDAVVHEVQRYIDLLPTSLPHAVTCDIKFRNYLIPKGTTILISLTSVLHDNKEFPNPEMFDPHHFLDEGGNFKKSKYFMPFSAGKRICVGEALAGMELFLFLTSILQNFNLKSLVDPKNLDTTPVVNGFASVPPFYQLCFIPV
Chain of CYP3A4 (P08684 whole entry): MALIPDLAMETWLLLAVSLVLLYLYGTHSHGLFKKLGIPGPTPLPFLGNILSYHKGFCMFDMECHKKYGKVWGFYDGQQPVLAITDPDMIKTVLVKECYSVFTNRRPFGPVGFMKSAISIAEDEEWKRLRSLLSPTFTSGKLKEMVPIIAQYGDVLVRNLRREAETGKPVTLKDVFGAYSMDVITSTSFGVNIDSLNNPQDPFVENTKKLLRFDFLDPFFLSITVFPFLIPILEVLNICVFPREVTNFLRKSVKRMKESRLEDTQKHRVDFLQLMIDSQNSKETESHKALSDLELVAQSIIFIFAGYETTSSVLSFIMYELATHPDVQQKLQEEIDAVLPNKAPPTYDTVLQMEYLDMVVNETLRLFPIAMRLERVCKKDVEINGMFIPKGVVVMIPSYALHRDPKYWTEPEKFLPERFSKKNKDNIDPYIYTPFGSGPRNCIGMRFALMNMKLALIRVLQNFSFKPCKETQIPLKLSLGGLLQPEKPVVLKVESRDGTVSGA
Chain of CYP2D6 (P10635 whole entry): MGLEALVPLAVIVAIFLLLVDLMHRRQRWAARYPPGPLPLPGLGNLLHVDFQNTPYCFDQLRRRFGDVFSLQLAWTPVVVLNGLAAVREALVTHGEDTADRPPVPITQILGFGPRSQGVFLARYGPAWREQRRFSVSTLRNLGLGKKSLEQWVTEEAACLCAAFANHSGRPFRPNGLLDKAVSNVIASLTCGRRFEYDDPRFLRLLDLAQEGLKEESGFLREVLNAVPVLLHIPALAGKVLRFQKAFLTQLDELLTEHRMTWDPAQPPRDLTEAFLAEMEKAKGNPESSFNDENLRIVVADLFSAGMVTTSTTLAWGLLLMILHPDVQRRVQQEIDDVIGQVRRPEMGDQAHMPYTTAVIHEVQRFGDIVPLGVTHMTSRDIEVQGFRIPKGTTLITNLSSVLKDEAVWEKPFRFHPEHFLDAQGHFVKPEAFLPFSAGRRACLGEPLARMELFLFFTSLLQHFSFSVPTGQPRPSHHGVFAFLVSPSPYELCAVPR
Chain of Dual specificity protein phosphatase 23 (Q9BVJ7 whole entry): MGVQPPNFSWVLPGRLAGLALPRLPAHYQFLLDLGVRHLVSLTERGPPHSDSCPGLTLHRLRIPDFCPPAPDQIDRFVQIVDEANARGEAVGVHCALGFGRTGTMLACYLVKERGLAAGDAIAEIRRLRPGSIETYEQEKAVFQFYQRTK

O=C(CS(=O)(=O)O)Nc1nc2cccc([N+](=O)[O-])c2s1
IC50 [1]: 1500 nM

Cc1c(Br)cc(NC(=O)CS(=O)(=O)O)cc1Br
IC50 [2]: > 100000 nM
IC50 [3]: 62 nM
IC50 [1]: 2200 nM
IC50 [4]: > 100000 nM
solubility [5]: 740 µg/mL (≈ 1910 µM)
inhibition at 0.05 h (CYP2D6): 1%
inhibition at 10 min (CYP2C9): 18%
inhibition at 0.05 h (CYP3A4): 15%
remaining at 0.5 h, 4 µM [6]: 7%
remaining at 0.5 h, 4 µM [7]: 0%
remaining at 0.5 h, 4 µM [8]: 23%
Fu [9]: < 0.008
AUC [10]: 8.8 µM·h
AUC [11]: 4.1 µM·h
Cmax ([12]; CD-1, mouse, plasma): 2000 nM
Cmax [13]: 2000 nM
fCmax [14]: < 16 nM
fCmax [15]: < 16 nM
Vdss [16]: 0.58 L/kg
half-life ([17]; CD-1, mouse, plasma): 1.5 h
t1/2 [18]: 4.2 h
F [19]: 43%
AUC [20]: 21.1 µM·h
Cmax [21]: 3030 nM
fCmax [22]: < 85 nM
Tmax [23]: 1.7 h
t1/2 [24]: 3.6 h
IC50 [25]: 62 nM

O=C(CS(=O)(=O)O)Nc1cc(Br)cc2ccccc12
IC50 [1]: 6000 nM

O=C(CS(=O)(=O)O)Nc1cc(Br)cc([N+](=O)[O-])c1
IC50 [1]: 3400 nM

O=C(CS(=O)(=O)O)Nc1nc2ccccc2s1
solubility [5]: 530 µg/mL (≈ 1950 µM)
inhibition at 0.05 h (CYP2D6): 0%
inhibition at 10 min (CYP2C9): 1%
inhibition at 0.05 h (CYP3A4): 6%
remaining at 0.5 h, 4 µM [6]: 18%
remaining at 0.5 h, 4 µM [7]: 3%
remaining at 0.5 h, 4 µM [8]: 11%
Fu [9]: 0.209

O=C(Nc1ccc(N2CCOCC2)c(Br)c1)NS(=O)(=O)O
IC50 [1]: 8 nM

O=C(CS(=O)(=O)O)Nc1cc(C(F)(F)F)cc(C(F)(F)F)c1
IC50 [1]: 5400 nM

O=C(CS(=O)(=O)O)Nc1nc2ccc([N+](=O)[O-])cc2s1
IC50 [1]: 200 nM
solubility [5]: 590 µg/mL (≈ 1860 µM)
inhibition at 0.05 h (CYP2D6): 1%
inhibition at 10 min (CYP2C9): 0%
inhibition at 0.05 h (CYP3A4): 0%
remaining at 0.5 h, 4 µM [6]: 53%
remaining at 0.5 h, 4 µM [7]: 4%
remaining at 0.5 h, 4 µM [8]: 7%
Fu [9]: 0.057

O=C(CS(=O)(=O)O)Nc1ccc(N2CCOCC2)c(Br)c1
IC50 [3]: 36 nM
IC50 [1]: 1500 nM
solubility [5]: 760 µg/mL (≈ 2000 µM)
inhibition at 0.05 h (CYP2D6): 20%
inhibition at 10 min (CYP2C9): 64%
inhibition at 0.05 h (CYP3A4): 36%
remaining at 0.5 h, 4 µM [6]: 3%
remaining at 0.5 h, 4 µM [7]: 3%
remaining at 0.5 h, 4 µM [8]: 11%
Fu [9]: 0.243
AUC [10]: 1.94 µM·h
AUC [11]: 1.72 µM·h
Cmax ([12]; mouse, in vivo, 8 h): 483 nM
Cmax [13]: 8090 nM
fCmax [14]: 117 nM
fCmax [15]: 1966 nM
Vdss [16]: 0.73 L/kg
t1/2 ([17]; mouse, in vivo, iv, 2 mg/kg, 8 h): 0.2 h
t1/2 [18]: 4.2 h
F [19]: 23%
AUC [20]: 1.23 µM·h
Cmax [21]: 258 nM
fCmax [22]: 43 nM
Tmax [23]: 1 h
t1/2 [24]: 6.8 h
IC50 [25]: 36 nM

Cc1c(Br)cc(NC(=O)[C@@H](C#N)S(=O)(=O)O)cc1Br
IC50 [1]: 4400 nM

O=C(CS(=O)(=O)O)Nc1cc(Br)cc(Br)c1
IC50 [1]: 6000 nM

O=C(CS(=O)(=O)O)Nc1cc(I)cc(I)c1
IC50 [1]: 3400 nM

O=C(Nc1ccccc1)NS(=O)(=O)O
IC50 [1]: 121 nM

N.O=C(Nc1nc2ccccc2s1)NS(=O)(=O)O
IC50 [1]: 56 nM
inhibition at 0.05 h (CYP2D6): 0%
inhibition at 10 min (CYP2C9): 0%
inhibition at 0.05 h (CYP3A4): 4%
remaining at 0.5 h, 4 µM [6]: 7%
remaining at 0.5 h, 4 µM [7]: 0%
remaining at 0.5 h, 4 µM [8]: 0%
Fu [9]: 0.07

O=C(CS(=O)(=O)O)Nc1cc(Cl)cc(Cl)c1
IC50 [1]: 8600 nM

O=C(CS(=O)(=O)O)Nc1cnc2ncccc2c1
IC50 [1]: 1500 nM
